Converted amounts (≈) assume the structure as drawn.
What was measured:
[1] = tested on: S. aureus (ATCC 29213); experiment: Antibacterial susceptibility testing (MIC, broth microdilution or agar dilution), S. aureus; assay type: cell-based; details: Staphylococcus aureus, ATCC29213; read-out: S. aureus (ATCC 29213) minimal inhibitory concentration (MIC)
Experimental: (§1) Compounds of the invention were tested for antimicrobial activity by susceptibility testing in liquid or on solid media. MICs for compounds against each strain were determined by the broth microdilution or agar dilution method according to the guidelines of the Clinical Laboratories and Standards Institute, formerly the National Committee for Clinical Laboratory Standards (Clinical Laboratories and Standards Institute. Methods for Dilution Antimicrobial Susceptibility Tests for Bacteria That Grow Aerobically; Approved Standard—Seventh Edition. Document M7-A7. CLSI, Wayne, Pa., 2006; Clinical Laboratories and Standards Institute. The Gram positive bacterial strains tested include S. aureus (Staphylococcus aureus (Isolate ID ATCC 29213)), E. faecalis (Enterococcus faecalis (Isolate ID ATCC 29212)) and S. pyogenes (Streptococcus pyogenes (Isolate ID ATCC 51339)). The Gram negative bacterial strains tested include H. influenzae (Haemophilus influenzae (Isolate ID ATCC 49247)).

[2] = tested on: S. pyogenes (ATCC 51339); experiment: Antibacterial susceptibility testing (MIC, broth microdilution or agar dilution), S. pyogenes; assay type: cell-based; details: Streptococcus pyogenes, ATCC51339; read-out: S. pyogenes (ATCC 51339) minimal inhibitory concentration (MIC)
Experimental: as §1

SMILES	MIC [1]	MIC [2]
CCNC(=O)Nc1cc(Nc2ccccc2)c(C(=O)NCC)cn1 [Compound 8, N-Ethyl-6-(3-ethylureido)-4-(phenylamino)nicotinamide]	32 µg/mL (≈ 97.7 µM)	16 µg/mL (≈ 48.9 µM)
CCNC(=O)Nc1cc(Nc2ccccc2)c(C(=O)Nc2ccnn2C)cn1 [Compound 10, 6-(3-Ethylureido)-N-(1-methyl-1H-pyrazol-5-yl)-4-(phenylamino)nicotinamide]	16 µg/mL (≈ 42.2 µM)	2 µg/mL (≈ 5.27 µM)
CCNC(=O)Nc1cc(Nc2ccc(OC)cc2)c(C(=O)Nc2cccnc2)cn1 [Compound 14, 6-(3-Ethylureido)-4-(4-methaxyphenylamino)-N-(pyridin-3-yl)nicotinamide]	4 µg/mL (≈ 9.84 µM)	2 µg/mL (≈ 4.92 µM)
CCNC(=O)Nc1cc(Nc2ccc(C(=O)OCC)cc2)c(C(=O)Nc2cccnc2)cn1 [Compound 15, Ethyl 4-(2-(3-ethylureido)-5-(pyridin-3-ylcarbamoyl)pyridin-4-ylamino)benzoate]	≤ 1 µg/mL	≤ 1 µg/mL
CCNC(=O)Nc1cc(Nc2ccccc2)c(C(=O)Nc2ccc(Cl)cc2)cn1 [Compound 34, N-(4-chlorophenyl)-6-(3-ethylureido)-4-(phenylamino)nicotinamide]	4 µg/mL (≈ 9.76 µM)	32 µg/mL (≈ 78.1 µM)
CCNC(=O)Nc1cc(Nc2ccccc2)c(C(=O)Nc2ccncc2)cn1 [Compound 42, 6-(3-ethylureido)-4-(phenylamino)-N-(pyridin-4-yl)nicotinamide]	≤ 1 µg/mL	≤ 1 µg/mL
CCNC(=O)Nc1cc(Nc2ccccc2)c(C(=O)Nc2c(C)noc2C)cn1 [Compound 50, N-(3,5-dimethylisoxazol-4-yl)-6-(3-ethylureido)-4-(phenylamino)nicotinamide]		4 µg/mL (≈ 10.1 µM)
CCNC(=O)Nc1cc(Nc2ccc(=O)n(C)c2)c(C(=O)Nc2cccnc2)cn1 [Compound 108, 6-(3-ethylureido)-4-(1-methyl-6-oxo-1,6-dihydropyridin-3-ylamino)-N-(pyridin-3-yl)nicotinamide]		16 µg/mL (≈ 39.3 µM)
CCNC(=O)Nc1cc(Nc2ccc(CC(=O)O)cc2)c(C(=O)Nc2cccnc2)cn1 [Compound 114, 2-(4-(2-(3-ethylureido)-5-(pyridin-3-ylcarbamoyl)pyridin-4-ylamino)phenyl)acetic acid]		8 µg/mL (≈ 18.4 µM)
CCNC(=O)Nc1cc(Nc2ccc(C(N)=O)cc2)c(C(=O)Nc2cccnc2)cn1 [Compound 125, 4-(4-carbamoylphenylamino)-6-(3-ethylureido)-N-(pyridin-3-yl)nicotinamide]		≤ 1 µg/mL
CCNC(=O)Nc1cc(Nc2ccc(C(=O)NC)cc2)c(C(=O)Nc2cccnc2)cn1 [Compound 126, 6-(3-ethylureido)-4-(4-(methylcarbamoyl)phenylamino)-N-(pyridin-3-yl)nicotinamide]		2 µg/mL (≈ 4.61 µM)
CCNC(=O)Nc1cc(Nc2ccc(C)cc2)c(C(=O)Nc2cccnc2)cn1 [Compound 140]	≤ 1 µg/mL	
CCNC(=O)Nc1cc(Nc2cccc(C(F)(F)F)c2)c(C(=O)Nc2cccnc2)cn1 [Compound 141]	≤ 1 µg/mL	
CCNC(=O)Nc1cc(Nc2ccc(C(F)(F)F)cc2)c(C(=O)Nc2cccnc2)cn1 [Compound 142]	2 µg/mL (≈ 4.5 µM)	
CCNC(=O)Nc1cc(Nc2ccccc2F)c(C(=O)Nc2cccnc2)cn1 [Compound 144]	≤ 1 µg/mL	
CCNC(=O)Nc1cc(Nc2ccc(OC)nc2)c(C(=O)Nc2cccnc2)cn1 [Compound 145]	4 µg/mL (≈ 9.82 µM)	
CCNC(=O)Nc1cc(Nc2cccnc2)c(C(=O)Nc2ccc(CCC(=O)OC)cc2)cn1 [Compound 147]	4 µg/mL (≈ 8.65 µM)	
CCNC(=O)Nc1cc(Nc2cncc(C)c2)c(C(=O)Nc2cccnc2)cn1 [Compound 157]	8 µg/mL (≈ 20.4 µM)	
CCNC(=O)Nc1cc(Nc2ccc(Cl)cc2)c(C(=O)Nc2ccc(C#CC(C)(C)O)cc2)cn1 [Compound 185, 4-[(4-chlorophenyl)amino]-6-[(ethylcarbamoyl)amino]-N-[4-(3-hydroxy-3-methylbut-1-yn-1-yl)phenyl]pyridine-3-carboxamide]	8 µg/mL (≈ 16.3 µM)	
CNC(=O)Nc1cc(Nc2ccccc2)c(C(=O)Nc2ccc(CCC(=O)O)cc2)cn1 [Compound 186, 3-{4-[({6-[(methylcarbamoyl)amino]-4-(phenylamino)pyridin-3-yl}carbonyl)amino]phenyl}propanoic acid]	32 µg/mL (≈ 73.8 µM)	

Now from value to compound:

MIC [1]	MIC [2]	SMILES
	≤ 1 µg/mL	CCNC(=O)Nc1cc(Nc2ccc(C(=O)O)cc2)c(C(=O)Nc2cccnc2)cn1 [Compound 16, 4-(2-(3-Ethylureido)-5-(pyridin-3-ylcarbamoyl)pyridin-4-ylamino)benzoic acid]
4 µg/mL (≈ 9.87 µM)	8 µg/mL (≈ 19.7 µM)	CCNC(=O)Nc1cc(Nc2ccccc2)c(C(=O)Nc2cccc(OC)c2)cn1 [Compound 32, 6-(3-ethylureido)-N-(3-methoxyphenyl)-4-(phenylamino)nicotinamide]
4 µg/mL (≈ 9.87 µM)	16 µg/mL (≈ 39.5 µM)	CCNC(=O)Nc1cc(Nc2ccccc2)c(C(=O)Nc2ccc(OC)cc2)cn1 [Compound 33, 6-(3-ethylureido)-N-(4-methoxyphenyl)-4-(phenylamino)nicotinamide]
	≤ 1 µg/mL	CCNC(=O)Nc1cc(Nc2ccccc2)c(C(=O)Nc2ccnnc2)cn1 [Compound 64, 6-(3-ethylureido)-4-(phenylamino)-N-(pyridazin-4-yl)nicotinamide]
	16 µg/mL (≈ 38.1 µM)	CCNC(=O)Nc1cc(Nc2ccccc2)c(C(=O)Nc2cncc(C(=O)O)c2)cn1 [Compound 84, 5-(6-(3-ethylureido)-4-(phenylamino)nicotinamido)nicotinic acid]
	8 µg/mL (≈ 19 µM)	CCNC(=O)Nc1cc(Nc2cccc(C(=O)O)c2)c(C(=O)Nc2cccnc2)cn1 [Compound 87, 3-(2-(3-ethylureido)-5-(pyridin-3-ylcarbamoyl)pyridin-4-ylamino)benzoic acid]
	4 µg/mL (≈ 8.94 µM)	CCNC(=O)Nc1cc(Nc2ccc(C(=O)N(C)C)cc2)c(C(=O)Nc2cccnc2)cn1 [Compound 124, 4-(4-(dimethylcarbamoyl)phenylamino)-6-(3-ethylureido)-N-(pyridin-3-yl)nicotinamide]
8 µg/mL (≈ 17.7 µM)		CCNC(=O)Nc1cc(Nc2ccc(Cl)cc2)c(C(=O)Nc2ccc(N=[N+]=[N-])cc2)cn1 [Compound 132, N-(4-azidophenyl)-4-[(4-chlorophenyl)amino]-6-[(ethylcarbamoyl)amino]pyridine-3-carboxamide]
≤ 1 µg/mL		CCNC(=O)Nc1cc(Nc2ccccc2)c(C(=O)Nc2ccc(C#CCO)cc2)cn1 [Compound 135, 6-[(Ethylcarbamoyl)amino]-N-[4-(3-hydroxyprop-1-yn-1-yl)phenyl]-4-(phenylamino)pyridine-3-carboxamide]
≤ 1 µg/mL		CCNC(=O)Nc1cc(Nc2ccc(F)cc2)c(C(=O)Nc2cccnc2)cn1 [Compound 139]
≤ 1 µg/mL		CCNC(=O)Nc1cc(Nc2cccc(F)c2)c(C(=O)Nc2cccnc2)cn1 [Compound 143]
16 µg/mL (≈ 35.7 µM)		CCNC(=O)Nc1cc(Nc2cccnc2)c(C(=O)Nc2ccc(CCC(=O)O)cc2)cn1 [Compound 153, 3-{4-[({6-[(ethylcarbamoyl)ami-no]-4-(pyridin-3-ylamino)pyridin-3-yl}carbonyl)amino]phenyl}pro-opanoic acid]
16 µg/mL (≈ 30.9 µM)		CCNC(=O)Nc1cc(Nc2cccnc2)c(C(=O)Nc2ccc(NCC3(C(=O)OC)CCC3)nc2)cn1 [Compound 156, methyl 1-[({5-[({6-[(ethylcarbamoyl)amino]-4-(pyridin-3-ylamino)pyridin-3-yl}carbonyl)amino]pyridin-2-yl}amino)methyl]cyclobutane carboxylate]
8 µg/mL (≈ 20.4 µM)		CCNC(=O)Nc1cc(Nc2ccnc(C)c2)c(C(=O)Nc2cccnc2)cn1 [Compound 162]
16 µg/mL (≈ 30.5 µM)		CCNC(=O)Nc1cc(Nc2ccc(Cl)cc2)c(C(=O)Nc2cnc(NC3(C(=O)O)CCC3)nc2)cn1 [Compound 165, 1-({5-[({4-[(4-chlorophenyl)amino]-6-[(ethylcarbamoyl)amino]pyridin-3-yl}carbonyl)amino]pyrimidin-2-yl}amino) cyclobutanecarboxylic acid]
16 µg/mL (≈ 40.9 µM)		CCNC(=O)Nc1cc(Nc2ccc(C)nc2)c(C(=O)Nc2cccnc2)cn1 [Compound 167]
≤ 1 µg/mL		CCNC(=O)Nc1cc(Nc2cccnc2)c(C(=O)Nc2ccc(CC(C)(C)C(=O)OC)cc2)cn1 [Compound 170, methyl 3-{4-[({6-[(ethylcarbamoyl)amino]-4-(pyridin-3-ylamino)pyridin-3-yl}carbonyl)amino]phenyl}-2,2-dimethylpropanoate]
4 µg/mL (≈ 9.82 µM)		CCNC(=O)Nc1cc(Nc2cncc(OC)c2)c(C(=O)Nc2cccnc2)cn1 [Compound 174]
32 µg/mL (≈ 69.5 µM)		CCNC(=O)Nc1cc(Nc2cccnc2)c(C(=O)Nc2ccc([C@@H]3C[C@H]3C(=O)O)cc2)cn1 [Compound 193]
8 µg/mL (≈ 15.8 µM)		CCNC(=O)Nc1cc(Nc2ccc(Cl)cc2)c(C(=O)Nc2ccc(-n3cc(CN)nn3)cc2)cn1 [Compound 194, N-{4-[4-(aminomethyl)-1H-1,2,3-triazol-1-yl]phenyl}-4-[(4-chlorophenyl)amino]-6-[(ethylcarbamoyl)amino]pyridine-3-carboxamide]
≤ 1 µg/mL		CCNC(=O)Nc1cc(Nc2ccc(OC)cc2)c(C(=O)Nc2ccc(CC(C)(C)C(=O)O)cc2)cn1 [Compound 208, 3-{4-[({6-[(ethylcarbamoyl)amino]-4-[(4-methoxyphenyl)amino]pyridin-3-yl}carbonyl)amino]phenyl}-2,2-dimethylpropanoic acid]
≤ 1 µg/mL		CCNC(=O)Nc1cc(Nc2cc(F)cc(F)c2)c(C(=O)Nc2ccc(Cc3nnn[nH]3)cc2)cn1 [Compound 209, 4-(3,5-difluoroanilino)-6-(ethylcarbamoylamino)-N-[4-(1H-tetrazol-5-ylmethyl)phenyl]pyridine-3-carboxamide]
